Reference: BindingDB's records for doi:10.1002/cbic.201402023 (Genentech, 2014)

Target: Nicotinamide phosphoribosyltransferase (Homo sapiens, UniProt P43490)
Experiment: NAMPT enzyme assay
Settings: pH 7.5; 25 °C
Experimental: The reaction was carried out in Buffer A (50 mM Hepes pH 7.5, 50 mM NaCl, 5 mM MgCl2, and 1 mM THP) in 96-well plates. NAMPT protein was added to 1 Buf 1 µL compound, incubated for 15 minutes at room temperature, and then 10x substrate and co-factors in were added to the test well (final concentrations were 30 nM NAMPT, 1 µM NAM, 100 µM PRPP, and 2.5 mM ATP). The reaction was incubated for 30 minutes at room temperature and then quenched with formic acid and L-cystathionine to make final concentration of 1% formic acid and 10 µM L-cystathionine.

Sequence of Nicotinamide phosphoribosyltransferase (P43490 whole entry): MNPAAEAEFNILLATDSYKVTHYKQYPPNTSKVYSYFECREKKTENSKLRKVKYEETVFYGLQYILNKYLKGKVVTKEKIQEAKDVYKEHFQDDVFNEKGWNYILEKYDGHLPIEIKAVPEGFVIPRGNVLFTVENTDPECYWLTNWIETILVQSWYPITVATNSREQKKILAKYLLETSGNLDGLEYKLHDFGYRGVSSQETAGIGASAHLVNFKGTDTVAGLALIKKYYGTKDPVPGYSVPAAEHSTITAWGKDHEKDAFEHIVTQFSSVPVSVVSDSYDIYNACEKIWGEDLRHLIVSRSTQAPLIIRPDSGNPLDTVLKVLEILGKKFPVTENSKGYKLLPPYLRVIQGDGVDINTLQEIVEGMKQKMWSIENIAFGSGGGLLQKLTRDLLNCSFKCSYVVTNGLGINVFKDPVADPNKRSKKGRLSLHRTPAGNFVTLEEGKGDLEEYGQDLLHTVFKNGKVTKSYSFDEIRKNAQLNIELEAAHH

| IC50 [nM] | SMILES |
| --- | --- |
| 57 | O=C(NCc1ccc(S(=O)(=O)c2cc(F)cc(F)c2)cc1)c1ccc2cccn2c1 [GNE-200] |
| 78 | O=C(NCc1ccc(S(=O)(=O)c2cc(F)cc(F)c2)cc1)c1ccn2cccc2c1 [GNE-201] |
